Key:
Test in all cases: Cy3/quencher fluorescence plate reader
Settings in all cases: 120 mM Na+, 5 mM K+, 1 mM Mg2+, 1 mM Ca2+; 20 mM Tris-HCl, 25 °C; affinity similar to glucose
[1] = test system: glu-2 ADS construct (DNA, aptamer, boronic acid-modified U (Z, T in the source) at 5,7,8,12,15,19,24,26 of strand 1 (MS of Bio-NNGmin: seven of eight coupled)) CCCGTGTTAGATAGTAAGTGCAATCTCGGCTTTCTGTCTCTTATACACATCTGACGCTGCCGACGA/TCGTCGGCAGCGTCAGATGTGTATAAGAGACAGTTTTTTTTTTTTTTTTTTTTTTTTTCAGGACAGGCTC
[2] = test system: glu-3 ADS construct (DNA, aptamer, boronic acid-modified U (Z, T in the source) at 5,7,8,12,15,19,24,26 of strand 1 (MS of Bio-NNGmin: seven of eight coupled)) CCCGTGTTAGATAGTAAGTGCAATCTCGGCTTTCTGTCTCTTATACACATCTGACGCTGCCGACGA/TCGTCGGCAGCGTCAGATGTGTATAAGAGACAGTTTTTTTTTTTTTTTTTTTTTTTTTTACCAGGAGCTC
[3] = test system: glu-4 ADS construct (DNA, aptamer, boronic acid-modified U (Z, T in the source) at 5,7,8,12,15,19,24,26 of strand 1 (MS of Bio-NNGmin: seven of eight coupled)) CCCGTGTTAGATAGTAAGTGCAATCTCGGCTTTCTGTCTCTTATACACATCTGACGCTGCCGACGA/TCGTCGGCAGCGTCAGATGTGTATAAGAGACAGTTTTTTTTTTTTTTTTTTTTTTTTTACCAGGAGCTTC
[4] = test system: glu-1 ADS construct (DNA, aptamer, boronic acid-modified U (Z, T in the source) at 5,7,8,12,15,19,24,26 of strand 1 (MS of Bio-NNGmin: seven of eight coupled)) CCCGTGTTAGATAGTAAGTGCAATCTCGGCTTTCTGTCTCTTATACACATCTGACGCTGCCGACGA/TCGTCGGCAGCGTCAGATGTGTATAAGAGACAGTTTTTTTTTTTTTTTTTTTTTTTTTTAGGGCAGGCTC

binding [1]: yes | binding [2]: yes | binding [3]: yes | binding [4]: yes
SMILES: OCC1(O)OC[C@@H](O)[C@@H](O)[C@@H]1O (stereo partly shown)
